Results reported in patent US20090247559A1 (Exelixis, Inc., priority 2007, published 2009).
Like-named read-outs stand apart in the source and are kept apart here.

Experiments:
CDC7 = CDC7 (Homo sapiens, UniProt O00311); assay: CDC7 inhibition, biochemical chemiluminescence assay (Kinase Glo, IC50 determination)
In short: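 CDC7 enzyme preincubated with compound 10 min at ambient temperature, then ATP mix in Tris Base added; reaction 90 min at 24-27 °C. Remaining ATP quantified by Kinase Glo luminescence to give IC50.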

[1] = molecular target: PIM (PIM-1, PIM-2, and/or PIM-3); assay: PIM-1, PIM-2 and PIM-3 inhibition, biochemical chemiluminescence assays (Kinase Glo, IC50 determination); settings: Table 1 activity class; PIM refers to PIM-1, PIM-2, and/or PIM-3; read-out: PIM IC50 (Activity B)
CK2 = CK2 (Homo sapiens, UniProt P68400); assay: CK2 inhibition, biochemical chemiluminescence holoenzyme assay (Kinase Glo, IC50 determination); settings: Table 1 activity class; symbol given only if active; read-out: CK2 IC50 (Activity C)
In short: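 Holoenzyme CK2 assay; compounds pre-incubated with substrate and enzyme, then reacted 150 min at 24-27° C. Remaining ATP measured as luminescence with Kinase Glo, and IC50 derived from the signal.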

[2] = Table 1 activity class, symbol given only if active, read-out: CDC7 IC50 (Activity A)
[3] = compounds in Table 1, read-out: CDC7 IC50 value

CDC7, sequence (O00311 whole entry): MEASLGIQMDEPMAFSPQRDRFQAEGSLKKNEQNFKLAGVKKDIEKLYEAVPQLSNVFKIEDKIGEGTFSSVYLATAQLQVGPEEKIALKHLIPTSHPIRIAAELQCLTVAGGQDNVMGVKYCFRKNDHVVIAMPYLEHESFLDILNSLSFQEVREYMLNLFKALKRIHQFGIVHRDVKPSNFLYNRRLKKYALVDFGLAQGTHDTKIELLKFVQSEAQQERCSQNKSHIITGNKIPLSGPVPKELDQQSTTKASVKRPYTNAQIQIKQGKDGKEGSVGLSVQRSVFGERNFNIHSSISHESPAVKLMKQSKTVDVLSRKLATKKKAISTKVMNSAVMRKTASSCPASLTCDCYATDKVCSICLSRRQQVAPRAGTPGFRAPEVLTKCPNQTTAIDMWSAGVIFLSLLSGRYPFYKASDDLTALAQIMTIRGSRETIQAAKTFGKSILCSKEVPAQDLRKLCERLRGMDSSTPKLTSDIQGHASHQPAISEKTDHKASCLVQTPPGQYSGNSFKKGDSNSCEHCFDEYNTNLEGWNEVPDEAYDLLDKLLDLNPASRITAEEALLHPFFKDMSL
CDC7, sequence (Q9UBU7 whole entry partner): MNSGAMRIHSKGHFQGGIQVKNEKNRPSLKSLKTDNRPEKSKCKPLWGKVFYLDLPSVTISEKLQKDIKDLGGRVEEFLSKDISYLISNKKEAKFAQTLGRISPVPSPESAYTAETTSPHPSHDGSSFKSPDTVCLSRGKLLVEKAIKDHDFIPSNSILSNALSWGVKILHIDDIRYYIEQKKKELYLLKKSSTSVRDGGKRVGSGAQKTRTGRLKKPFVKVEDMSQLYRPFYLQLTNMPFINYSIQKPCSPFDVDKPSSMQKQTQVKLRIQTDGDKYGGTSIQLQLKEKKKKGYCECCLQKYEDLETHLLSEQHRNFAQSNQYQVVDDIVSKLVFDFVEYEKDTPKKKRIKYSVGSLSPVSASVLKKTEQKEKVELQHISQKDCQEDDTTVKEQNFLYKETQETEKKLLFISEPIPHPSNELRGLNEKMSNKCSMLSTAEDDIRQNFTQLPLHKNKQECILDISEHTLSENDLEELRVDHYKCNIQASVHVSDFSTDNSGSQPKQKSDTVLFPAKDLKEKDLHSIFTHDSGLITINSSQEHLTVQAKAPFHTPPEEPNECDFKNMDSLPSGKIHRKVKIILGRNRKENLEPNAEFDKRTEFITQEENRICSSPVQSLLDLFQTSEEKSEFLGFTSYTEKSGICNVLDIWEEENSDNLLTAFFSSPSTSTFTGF
CK2, sequence (P68400 whole entry): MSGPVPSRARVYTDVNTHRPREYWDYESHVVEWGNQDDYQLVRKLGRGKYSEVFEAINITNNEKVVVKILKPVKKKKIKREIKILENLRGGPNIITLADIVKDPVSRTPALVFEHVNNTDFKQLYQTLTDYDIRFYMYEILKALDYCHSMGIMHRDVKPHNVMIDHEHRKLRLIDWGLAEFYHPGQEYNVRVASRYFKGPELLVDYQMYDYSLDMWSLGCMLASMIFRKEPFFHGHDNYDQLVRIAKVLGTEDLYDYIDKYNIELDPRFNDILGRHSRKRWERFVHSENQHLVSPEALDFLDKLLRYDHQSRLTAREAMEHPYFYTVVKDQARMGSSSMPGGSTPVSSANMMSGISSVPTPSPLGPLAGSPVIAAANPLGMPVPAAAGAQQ
CK2, sequence (P67870 whole entry partner): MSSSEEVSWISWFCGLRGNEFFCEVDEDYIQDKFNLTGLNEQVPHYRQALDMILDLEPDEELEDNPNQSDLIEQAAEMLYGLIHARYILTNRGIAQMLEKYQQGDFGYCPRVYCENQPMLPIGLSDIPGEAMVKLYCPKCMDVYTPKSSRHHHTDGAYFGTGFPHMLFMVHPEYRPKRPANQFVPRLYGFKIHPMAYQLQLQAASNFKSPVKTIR

SMILES	IC50 (CDC7; [2])	IC50 (CDC7; [3])	IC50 [1]	IC50 (CK2)
O=c1[nH]c(CN2CCC[C@@H]2CO)nc2c1oc1ccc(Br)cc12 [Compound 344, 8-bromo-2-{[(2R)-2-(hydroxymethyl)pyrrolidin-1-yl]methyl}[1]benzofuro[3,2-d]pyrimidin-4(3H)-one]	< 10 µM	< 0.1 µM	< 10 µM	< 10 µM
Cc1ccc(C(=O)Nc2ccc(-c3nc4c(oc5ccc(Br)cc54)c(=O)[nH]3)c(Cl)c2)cn1 [Compound 291, N-[4-(8-bromo-4-oxo-3,4-dihydro[1]benzofuro[3,2-d]pyrimidin-2-yl)-3-chlorophenyl]-6-methylpyridine-3-carboxamide]	< 10 µM	–	< 10 µM	< 10 µM
O=c1[nH]c(-c2cnc3cc(C4CCNCC4)nn3c2)nc2c1oc1ccc(Br)cc12 [Compound 377, 8-Bromo-2-(2-piperidin-4-ylpyrazolo[1,5-a]pyrimidin-6-yl)[1]benzofuro[3,2-d]pyrimidin-4(3H)-one]	< 10 µM	–	< 10 µM	< 10 µM
O=C(Cc1cccnc1)Nc1ccc(-c2nc3c(oc4ccc(Br)cc43)c(=O)[nH]2)c(Cl)c1 [Compound 322, N-[4-(8-bromo-4-oxo-3,4-dihydro[1]benzofuro[3,2-d]pyrimidin-2-yl)-3-chlorophenyl]-2-pyridin-3-ylacetamide]	< 10 µM	–	< 10 µM	< 10 µM
NCc1ccc(-c2nc3c(oc4ccc(Br)cc43)c(=O)[nH]2)cc1 [Compound 349, 2-[4-(Aminomethyl)phenyl]-8-bromo[1]benzofuro[3,2-d]pyrimidin-4(3H)-one]	< 10 µM	–	< 10 µM	< 10 µM
O=c1[nH]c(CNCc2ccccc2Cl)nc2c1oc1ccc(Br)cc12 [Compound 235, 8-bromo-2-({[(2-chlorophenyl)methyl]amino}methyl)[1]benzofuro[3,2-d]pyrimidin-4(3H)-one]	< 10 µM	–	< 10 µM	< 10 µM
O=c1[nH]c(CN2CCC[C@H](O)C2)nc2c1oc1ccc(Br)cc12 [Compound 404, 8-bromo-2-{[(3S)-3-hydroxypiperidin-1-yl]methyl}[1]benzofuro[3,2-d]pyrimidin-4(3H)-one]	< 10 µM	< 0.1 µM	< 10 µM	< 10 µM
O=C(CC1CCNCC1)Nc1ccc(-c2nc3c(oc4ccc(Br)cc43)c(=O)[nH]2)c(Cl)c1 [Compound 217, N-[4-(8-bromo-4-oxo-3,4-dihydro[1]benzofuro[3,2-d]pyrimidin-2-yl)-3-chlorophenyl]-2-piperidin-4-ylacetamide]	< 10 µM	–	< 10 µM	< 10 µM
NC1(c2nc3c(oc4ccc(Br)cc43)c(=O)[nH]2)CCCC1 [Compound 543, 2-(1-aminocyclopentyl)-8-bromo[1]benzofuro[3,2-d]pyrimidin-4(3H)-one]	< 10 µM	< 0.1 µM	< 10 µM	< 10 µM
O=c1[nH]c([C@@H]2C[C@@H](F)CN2)nc2c1oc1ccc(Br)cc12 [Compound 514, 8-bromo-2-[(2S,4R)-4-fluoropyrrolidin-2-yl][1]benzofuro[3,2-d]pyrimidin-4(3H)-one]	< 10 µM	< 0.1 µM	< 10 µM	< 10 µM
O=C(Nc1ccc(-c2nc3c(oc4ccc(Br)cc43)c(=O)[nH]2)c(Cl)c1)c1cncnc1 [Compound 328, N-[4-(8-bromo-4-oxo-3,4-dihydro[1]benzofuro[3,2-d]pyrimidin-2-yl)-3-chlorophenyl]pyrimidine-5-carboxamide]	< 10 µM	–	< 10 µM	< 10 µM
CCC(C)NCc1nc2c(oc3ccc(Br)cc32)c(=O)[nH]1 (stereo not drawn) [Compound 232, 8-bromo-2-{[(1-methylpropyl)amino]methyl}[1]benzofuro[3,2-d]pyrimidin-4(3H)-one]	< 10 µM	< 0.1 µM	< 10 µM	< 10 µM
O=C(NCc1ccccc1Cl)C1CCN(Cc2nc3c(oc4ccc(Br)cc43)c(=O)[nH]2)C1 (stereo not drawn) [Compound 224, 1-[(8-bromo-4-oxo-3,4-dihydro[1]benzofuro[3,2-d]pyrimidin-2-yl)methyl]-N-[(2-chlorophenyl)methyl]pyrrolidine-3-carboxamide]	< 10 µM	–	< 10 µM	< 10 µM
O=c1[nH]c(CN2C[C@@H](O)[C@@H](O)C2)nc2c1oc1ccc(Br)cc12 [Compound 348, 8-bromo-2-{[cis-3,4-dihydroxypyrrolidin-1-yl]methyl}[1]benzofuro[3,2-d]pyrimidin-4(3H)-one]	< 10 µM	< 0.1 µM	< 10 µM	< 10 µM
NC(=O)C1CCN(Cc2nc3c(oc4ccc(Br)cc43)c(=O)[nH]2)C1 (stereo not drawn) [Compound 270, 1-[(8-bromo-4-oxo-3,4-dihydro[1]benzofuro[3,2-d]pyrimidin-2-yl)methyl]pyrrolidine-3-carboxamide]	< 10 µM	< 0.1 µM	< 10 µM	< 10 µM
CNCc1nc2c(oc3ccc(Br)cc32)c(=O)[nH]1 [Compound 516, 8-bromo-2-[(methylamino)methyl][1]benzofuro[3,2-d]pyrimidin-4(3H)-one]	< 10 µM	< 0.1 µM	< 10 µM	< 10 µM
CNc1cc(-c2nc3c(oc4ccc(Br)cc43)c(=O)[nH]2)c(Cl)cn1 [Compound 265, 8-bromo-2-[5-chloro-2-(methylamino)pyridin-4-yl][1]benzofuro[3,2-d]pyrimidin-4(3H)-one]	< 10 µM	–	< 10 µM	< 10 µM
Nc1n[nH]c2ccc(-c3nc4c(oc5ccc(Br)cc54)c(=O)[nH]3)cc12 [Compound 220, 2-(3-amino-1H-indazol-5-yl)-8-bromo[1]benzofuro[3,2-d]pyrimidin-4(3H)-one]	< 10 µM	–	< 10 µM	< 10 µM
O=C(Nc1ccc(-c2nc3c(oc4ccc(Br)cc43)c(=O)[nH]2)c(Cl)c1)c1cnc2[nH]ccc2c1 [Compound 395, ′N-[4-(8-bromo-4-oxo-3,4-dihydro[1]benzofuro[3,2-d]pyrimidin-2-yl)-3-chlorophenyl]-1H-pyrrolo[2,3-b]pyridine-5-carboxamide]	< 10 µM	–	< 10 µM	< 10 µM
CC(C)(NCc1nc2c(oc3ccc(Br)cc32)c(=O)[nH]1)C(=O)O [Compound 189, N-[(8-bromo-4-oxo-3,4-dihydro[1]benzofuro[3,2-d]pyrimidin-2-yl)methyl]-2-methylalanine]	< 10 µM	–	< 10 µM	< 10 µM
O=c1[nH]c(CN2CCC3(CCNCC3)CC2)nc2c1oc1ccc(Br)cc12 [Compound 311, 8-bromo-2-(3,9-diazaspiro[5.5]undec-3-ylmethyl)[1]benzofuro[3,2-d]pyrimidin-4(3H)-one]	< 10 µM	–	< 10 µM	< 10 µM
COc1ccc2oc3c(=O)[nH]c(C4CCCN4)nc3c2c1 (stereo in doubt) [Compound 495, 8-(methyloxy)-2-[(2R)-pyrrolidin-2-yl][1]benzofuro[3,2-d]pyrimidin-4(3H)-one]	< 10 µM	< 0.1 µM	< 10 µM	< 10 µM
Nc1n[nH]c2cc(-c3nc4c(oc5ccc(Br)cc54)c(=O)[nH]3)c(Cl)cc12 [Compound 205, 2-(3-amino-5-chloro-1H-indazol-6-yl)-8-bromo[1]benzofuro[3,2-d]pyrimidin-4(3H)-one]	< 10 µM	–	< 10 µM	< 10 µM
O=c1[nH]c(CN2CC[C@@H](F)C2)nc2c1oc1ccc(Br)cc12 [Compound 307, 8-bromo-2-{[(3R)-3-fluoropyrrolidin-1-yl]methyl}[1]benzofuro[3,2-d]pyrimidin-4(3H)-one]	< 10 µM	< 0.1 µM	< 10 µM	< 10 µM
COc1ccc2oc3c(=O)[nH]c(-c4ccc(F)cc4Cl)nc3c2c1 [Compound 144, 2-(2-chloro-4-fluorophenyl)-8-(methyloxy)[1]benzofuro[3,2-d]pyrimidin-4(3H)-one]	< 10 µM	–	< 10 µM	< 10 µM
Nc1cc(-c2nc3c(oc4ccc(Br)cc43)c(=O)[nH]2)c(Cl)cn1 [Compound 173, 2-(2-amino-5-chloropyridin-4-yl)-8-bromo[1]benzofuro[3,2-d]pyrimidin-4(3H)-one]	< 10 µM	< 0.1 µM	< 10 µM	< 10 µM
O=c1[nH]c(-c2cc([N+](=O)[O-])ccc2Cl)nc2c1oc1ccc(Br)cc12 [Compound 126, 8-bromo-2-(2-chloro-5-nitrophenyl)[1]benzofuro[3,2-d]pyrimidin-4(3H)-one]	< 10 µM	–	< 10 µM	< 10 µM
NC1(c2nc3c(oc4ccc(Br)cc43)c(=O)[nH]2)CCC1 [Compound 544, 2-(1-aminocyclobutyl)-8-bromo[1]benzofuro[3,2-d]pyrimidin-4(3H)-one]	< 10 µM	< 0.1 µM	< 10 µM	< 10 µM
O=c1[nH]c(CNC2CCCCC2)nc2c1oc1ccc(Br)cc12 [Compound 504, 8-bromo-2-[(cyclohexylamino)methyl][1]benzofuro[3,2-d]pyrimidin-4(3H)-one]	< 10 µM	–	< 10 µM	< 10 µM
CN1CCN(c2nc3c(oc4ccc(Br)cc43)c(=O)[nH]2)CC1 [Compound 115, 8-bromo-2-(4-methylpiperazin-1-yl)[1]benzofuro[3,2-d]pyrimidin-4(3H)-one]	< 10 µM	–	< 10 µM	< 10 µM
